Earlier results, collected in patent US20230010484A1, “METHOD FOR THE DECOLORIZATION OF KERATIN MATERIAL THAT HAS BEEN DYED USING A PIGMENT” (Henkel AG & Co. KGaA, priority 2019, published 2023).

Conditions: 25° C.

O=S(=O)([O-])c1ccc(N=Nc2c(O)ccc3ccccc23)cc1.[Na+] [Acid Orange 7, sodium salt of 4-[(2-hydroxy-1-naphthyl)azo]benzene sulphonate]
solubility in water: more than 7 g/L

Nc1cc(S(=O)(=O)[O-])cc2cc(S(=O)(=O)[O-])c(N=Nc3ccccc3)c(O)c12.[Na+].[Na+] [Acid Red 33, dinatrium salt of 5-amino-4-hydroxy-3-(phenylazo)-naphthalene-2,7-disulphonate]
solubility in water: about 2.5 g/L

O=C([O-])c1c(Cl)c(Cl)c(Cl)c(Cl)c1-c1c2c(Br)cc(=O)c(Br)c-2oc2c(Br)c(O)cc(Br)c12.O=C([O-])c1c(Cl)c(Cl)c(Cl)c(Cl)c1-c1c2c(Br)cc(=O)c(Br)c-2oc2c(Br)c(O)cc(Br)c12.[Na+].[Na+] [Acid Red 92, disodium salt of 3,4,5,6-tetrachloro-2-(1,4,5,8-tetrabromo-6-hydroxy-3-oxoxanthen-9-yl)benzoic acid]
solubility in water: greater than 10 g/L

O=C([O-])C1=NN(c2ccc(S(=O)(=O)[O-])cc2)C(=O)C1N=Nc1ccc(S(=O)(=O)[O-])cc1.[Na+].[Na+].[Na+] (stereo not shown) [Acid Yellow 23, trisodium salt of 4,5-dihydro-5-oxo-1-(4-sulfophenyl)-4-((4-sulfophenyl)azo)-1H-pyrazole-3-carboxylic acid]
solubility in water (in words): highly soluble
